Reference: patent publication US11477982B2, “2-amino-5-oxyalkyl-pyrimidine derivatives and their use for controlling undesired plant growth” (Bayer CropScience Aktiengesellschaft, priority 2017, dated 2022)

Legend:
Format in all cases: in vivo
[1] = test system: AMARE: Amaranthus retroflexus; assay: Pre-emergence herbicidal effect; settings: pre-emergence; dosage 320 g/ha
Source text: (§1) 1. Pre-Emergence Herbicidal Effect and Crop Plant Compatibility
(§2) Seeds of monocotyledonous and dicotyledonous weed plants and crop plants are placed in plastic or wood fiber pots and covered with soil. The compounds of the invention, formulated in the form of wettable powders (WP) or as emulsion concentrates (EC), are then applied onto the surface of the covering soil as aqueous suspension or emulsion with addition of 0.5% additive at a water application rate of 600 l/ha (converted).
(§3) After the treatment, the pots are placed in a greenhouse and kept under good growth conditions for the trial plants. After about 3 weeks, the effect of the preparations is scored visually in comparison with untreated controls as percentages. For example, 100% activity=the plants have died, 0% activity=like control plants.

[2] = test system: POLCO: Polygonum convolvulus; assay: Pre-emergence herbicidal effect; settings: dosage 320 g/ha
Source text: as §1, §2, §3

HORMU: Hordeum murinum = assay: Pre-emergence herbicidal effect; settings: pre-emergence; dosage 320 g/ha
Source text: as §1, §2, §3

PHBPU: Ipomoea purpurea = assay: Pre-emergence herbicidal effect; settings: dosage 320 g/ha
Source text: as §1, §2, §3

[3] = test system: ABUTH: Abutilon theophrasti; assay: Pre-emergence herbicidal effect; settings: dosage 320 g/ha
Source text: as §1, §2, §3

LOLRI: Lolium rigidum = assay: Pre-emergence herbicidal effect; settings: dosage 320 g/ha
Source text: as §1, §2, §3

STEME: Stellaria media [4] = assay: Pre-emergence herbicidal effect; settings: pre-emergence; dosage 320 g/ha
Source text: as §1, §2, §3

[5] = test system: ECHCG: Echinochloa crus-galli; assay: Pre-emergence herbicidal effect; settings: pre-emergence; dosage 320 g/ha
Source text: as §1, §2, §3

[6] = test system: MATIN: Matricaria inodora; assay: Pre-emergence herbicidal effect; settings: pre-emergence; dosage 320 g/ha
Source text: as §1, §2, §3

AVEFA: Avena fatua = assay: Pre-emergence herbicidal effect; settings: dosage 320 g/ha
Source text: as §1, §2, §3

[7] = test system: ALOMY: Alopecurus myosuroides; assay: Pre-emergence herbicidal effect; settings: pre-emergence; dosage 320 g/ha
Source text: as §1, §2, §3

SETVI: Setaria viridis [8] = assay: Pre-emergence herbicidal effect; settings: pre-emergence; dosage 320 g/ha
Source text: as §1, §2, §3

VIOTR: Viola tricolor [9] = assay: Pre-emergence herbicidal effect; settings: dosage 320 g/ha
Source text: as §1, §2, §3

VERPE: Veronica persica [10] = assay: Pre-emergence herbicidal effect; settings: dosage 320 g/ha
Source text: as §1, §2, §3

[11] = test system: AMARE: Amaranthus retroflexus; assay: Post-emergence herbicidal effect; settings: dosage 320 g/ha
Procedure: (§4) 2. Post-Emergence Herbicidal Effect and Crop Plant Compatibility
(§5) Seeds of monocotyledonous and dicotyledonous weeds and crop plants are placed in sandy loam in plastic or wood-fiber pots, covered with soil and cultivated in a greenhouse under controlled growth conditions, 2 to 3 weeks after sowing, the test plants are treated at the one-leaf stage. The compounds of the invention, formulated in the form of wettable powders (WP) or as emulsion concentrates (EC), are then sprayed onto the green parts of the plants as aqueous suspension or emulsion with addition of 0.5% additive at a water application rate of 600 l/ha (converted). After the test plants had been kept in the greenhouse under optimum growth conditions for about 3 weeks, the activity of the preparations is rated visually in comparison to untreated controls. For example, 100% activity=the plants have died, 0% activity=like control plants.

[12] = test system: ABUTH: Abutilon theophrasti; assay: Post-emergence herbicidal effect; settings: dosage 320 g/ha
Procedure: as §4, §5

STEME: Stellaria media [13] = assay: Post-emergence herbicidal effect; settings: dosage 320 g/ha
Procedure: as §4, §5

[14] = test system: ECHCG: Echinochloa crus-galli; assay: Post-emergence herbicidal effect; settings: dosage 320 g/ha
Procedure: as §4, §5

SETVI: Setaria viridis [15] = assay: Post-emergence herbicidal effect; settings: dosage 320 g/ha
Procedure: as §4, §5

VIOTR: Viola tricolor [16] = assay: Post-emergence herbicidal effect; settings: dosage 320 g/ha
Procedure: as §4, §5

VERPE: Veronica persica [17] = assay: Post-emergence herbicidal effect; settings: dosage 320 g/ha
Procedure: as §4, §5

SMILES	Herbicidal action against AMARE [1] [%]	Herbicidal action against POLCO [2] [%]	Herbicidal action against HORMU (HORMU: Hordeum murinum) [%]	Herbicidal action against PHBPU (PHBPU: Ipomoea purpurea) [%]	Herbicidal action against ABUTH [3] [%]	Herbicidal action against LOLRI (LOLRI: Lolium rigidum) [%]	Herbicidal action against STEME (STEME: Stellaria media [4]) [%]	Herbicidal action against ECHCG [5] [%]	Herbicidal action against MATIN [6] [%]	Herbicidal action against AVEFA (AVEFA: Avena fatua) [%]	Herbicidal action against ALOMY [7] [%]	Herbicidal action against VIOTR (VIOTR: Viola tricolor [9]) [%]	Herbicidal action against VERPE (VERPE: Veronica persica [10]) [%]	Herbicidal action against AMARE [11] [%]	Herbicidal action against ABUTH [12] [%]	Herbicidal action against STEME (STEME: Stellaria media [13]) [%]	Herbicidal action against ECHCG [14] [%]	Herbicidal action against SETVI (SETVI: Setaria viridis [15]) [%]	Herbicidal action against VIOTR (VIOTR: Viola tricolor [16]) [%]	Herbicidal action against VERPE (VERPE: Veronica persica [17]) [%]	also measured
Cc1ccc2c(c1)C(Nc1ncc(C(C)(C)O)cn1)CCC2 (racemic) [Example 1.43]	100	100	100	100	100	100	100	100	100	100	100	100	100	90	90	100	100	90	90	90	Herbicidal action against SETVI (SETVI: Setaria viridis [8]): 100%
Cc1ccc2c(c1)[C@H](Nc1ncc(C(C)(C)O)c(C)n1)CC2 [Example 1.12]	100	100	100	100	100	100	100	100	100	100	100	100	100	90	90	100	100	100	80	90	Herbicidal action against SETVI (SETVI: Setaria viridis [8]): 100%
CCC(O)(c1cnc(N[C@H]2c3cc(C)ccc3C[C@@H]2C)nc1)C(F)(F)F (stereo partly drawn) [Example 1.58]	100	100	–	–	–	–	–	–	100	–	–	100	100	90	90	90	100	90	90	90	–
CCc1ccc2c(c1)[C@H](Nc1ncc(C(C)(C)O)c(C)n1)CC2 [Example 1.57]	100	100	100	100	100	100	100	100	100	100	100	100	100	100	90	90	100	90	90	90	Herbicidal action against SETVI (SETVI: Setaria viridis [8]): 100%
CCC(O)(CC)c1cnc(N[C@H]2c3cc(C)ccc3C[C@@H]2C)nc1 [Example 1.10]	100	100	100	80	100	100	100	100	100	100	100	100	100	90	90	100	100	80	90	90	Herbicidal action against SETVI (SETVI: Setaria viridis [8]): 100%
Cc1ccc2c(c1)[C@H](Nc1ncc(C(C)(C)O)cn1)CCO2 [Example 1.38]	100	100	–	–	–	–	–	–	100	–	–	100	100	100	90	100	100	90	90	90	–
CC(C)(O)c1cnc(N[C@@H]2CCc3ccccc32)nc1 [Example 1.30]	100	100	–	–	–	–	–	–	100	–	–	100	100	100	90	100	100	90	90	80	–
